Test results from patent publication US5378475A, “Sustained release drug delivery devices” (priority 1991, dated 1995).

What was measured:
[1] = J. Ocular Pharmacol. 1988;1062:231; cited from earlier work
[2] = Diffusion/release of 5-FU through PVA membranes; type: in vitro ADME; details: heat treated PVA membrane
Text: Subconjunctival administration of 5-FU as an adjunct to filtration surgery in high risk glaucoma patients is attended by the necessity of multiple subconjunctival injections and the potentially serious complications due to delayed wound healing. Alternative delivery systems have been proposed including liposomes, topical administration, and sustained release polymers. […] Therefore, the rate of release was further decreased by layering EVA within the PVA to create a membrane system that was 6×8 mm in size.

[3] = J. Ocular Pharmacol. 1988;1062:231; cited from earlier work; remark: listed apart in the source
[4] = Device/drug stability after heat treatment (Example 2); type: physicochemical
rabbit retina = assay: 6 mg bolus dose of intravitreal GCV: retinal toxicity in rabbit (Example 3); type: in vivo, New Zealand albino rabbits; details: 6 mg bolus dose intravitreal, two eyes
CMV retinitis [5] = details: intravenous; cited from earlier work
rabbit eye = system: rabbit eye; parameters: species or system New Zealand albino rabbits; details: in vivo
Method: New Zealand albino rabbits weighing 1.5 to 2 kg were used in this study. Anesthesia was provided with intramuscular ketamine HCl (40 mg/kg), attopine sulfate (0.1 mg/kg), xylazine HCl (10 mg/kg) and topical proparacaine (0.5%).
A baseline photopic electroretinogram (ERG) was recorded preoperatively in each rabbit using a corneal contact lens. A Gansfeld stimulus was used to improve standardization of results. After sedation, the rabbits were placed inside a Gansfeld stimulator 20 cm away from the flash unit. Flash (cone and rod response) and flicker (cone response) ERGs were done under light adapted conditions. Graphic measurements were recorded, and the waveform amplitudes and implicit times were calculated.
This was done because the pars plana of the New Zealand albino rabbit is poorly developed and it was therefore necessary to implant the devices and take vitreous samples through retina. The ERG was repeated four weeks later immediately prior to insertion of the device. […]
Vitreous samples were periodically removed using a 20 gauge needle on a tuberculin syringe. […] After removal, vitreous samples were stored at -60° C until analyzed by HPLC. […]
Vitreous samples were not collected from the treated eyes. […] In this group, devices were removed from the eyes and the amount of GCV still present determined by HPLC. […]

CMV retinitis [6] = details: intravitreal injections of 200 to 400 μg once or twice weekly; cited from earlier work
AIDS patients = details: human, in vivo; cited from earlier work

In the case of O=c1[nH]cc(F)c(=O)[nH]1 [5-FU, 5-fluorouracil], the “release of 5-FU through PVA” value [1] is given as “PVA provided a linear release”, the “effect of heat treating the PVA membrane on 5-FU release rates” value [2] is given as “release rates could be markedly decreased” and the “permeability of EVA to 5-FU” value [3] is given as “EVA was impermeable to 5-FU”.

In the case of Nc1nc(O)c2ncn(COC(CO)CO)c2n1 [GCV, ganciclovir], the “drug loss or decomposition after heat treatment of ganciclovir pellet” value ([4]; HPLC analysis) is reported as “no apparent drug loss or decomposition”, the “near IR after heat treatment” value ([4]; individual component) is reported as “no change after heat treatment” and the “toxicity by indirect ophthalmoscopy” value (rabbit retina) is reported as “no evidence of toxicity”. The bone marrow toxicity (CMV retinitis [5]) was “bone marrow toxicity limits its usefulness”, the “effect on CMV retinitis in AIDS patients” value (CMV retinitis [5]) was “effective in the treatment of CMV retinitis in AIDS patients” and the observable retinal toxicity (rabbit eye) was “No observable retinal toxicity”. The “effect on CMV retinitis” value (CMV retinitis [6]) was “temporary remission of CMV retinitis in AIDS patients”.

In the case of Cc1cn([C@H]2C[C@H](N=[N+]=[N-])[C@@H](CO)O2)c(=O)[nH]c1=O [zidovudine], the “effect in AIDS patients” value (AIDS patients) is listed as “prolong life and improve the immune function in AIDS patients”.
